In patent US4198507A (Hoffmann-La Roche Inc., priority 1978, dated 1980):

What was measured:
[1] = prior art; cited from earlier work
[2] = system: gastrointestinal tract; details: compared with the parent xanthines; prior art; cited from earlier work
[3] = system: Mice; test: Acute toxicity, mice p.o. (72 hours); type: in vivo
Procedure: 1. Acute Toxicity LC50 Mice p.o. (72 hours)

[4] = prior art; cited from earlier work; remark: listed apart in the source

Compound | Acute Toxicity LC50 [3] [mg] | water solubility (in words) [4] | further results
theophylline calcium salicylate | – | – | reaction in aqueous solutions or suspensions [1]: alkaline reactions; tolerance in the gastrointestinal tract [2]: better tolerated
Cn1c(=O)c2[nH]cnc2n(C)c1=O [Theophylline anhydrous, 1, 3, dimethyl xanthine] | 460 ± 35 | – | –
Cn1cnc2c1c(=O)[nH]c(=O)n2C [theobromine sodium salicylate] | – | soluble | –
O=C(O)c1ccccc1O [Magnesium Sailicylate, magnesium salicylate] | 1200 ± 53 | – | –
CC(=O)[O-].Cn1c(=O)c2[nH]cnc2n(C)c1=O.[Na+] [theophylline sodium acetate] | – | soluble in water | –
